According to publication PMC10528299, “Targeting FAK/PYK2 with SJP1602 for Anti-Tumor Activity in Triple-Negative Breast Cancer” (Current Issues in Molecular Biology, 2023):

Columns and labels:
HCC70 = assay: 3D spheroid assay HCC70; type: cell-based; details: Homo sapiens, 96 h; HCC70, 4 days treatment; read-out: IC50 3D spheroid cell viability
Experimental: Breast cancer cell lines were cultured in medium with or without 2% Matrigel (Corning, NY, USA) for 3 days in each 96-well ultra-low attachment round plate to form a single spheroid at a density of 3 × 10^3 cells/well. SJP1602 was dissolved in DMSO and treated for 4 days at concentrations ranging from 200 nM to 20 μM. Cell viability was quantified according to the manufacturer’s instructions using a CellTiter-Glo 3D cell viability assay (Promega, Madison, WI, USA). Luminescence was measured using the Tecan Spark 10M.

ATM(h) = molecular target: T1, ATM(h) (Homo sapiens, UniProt Q13315); assay: Eurofins kinase profiling; type: biochemical; details: read-out: residual kinase activity ATM(h)
T1 construct: purchased Eurofins KinaseProfiler
T1 sequence (Q13315 whole entry): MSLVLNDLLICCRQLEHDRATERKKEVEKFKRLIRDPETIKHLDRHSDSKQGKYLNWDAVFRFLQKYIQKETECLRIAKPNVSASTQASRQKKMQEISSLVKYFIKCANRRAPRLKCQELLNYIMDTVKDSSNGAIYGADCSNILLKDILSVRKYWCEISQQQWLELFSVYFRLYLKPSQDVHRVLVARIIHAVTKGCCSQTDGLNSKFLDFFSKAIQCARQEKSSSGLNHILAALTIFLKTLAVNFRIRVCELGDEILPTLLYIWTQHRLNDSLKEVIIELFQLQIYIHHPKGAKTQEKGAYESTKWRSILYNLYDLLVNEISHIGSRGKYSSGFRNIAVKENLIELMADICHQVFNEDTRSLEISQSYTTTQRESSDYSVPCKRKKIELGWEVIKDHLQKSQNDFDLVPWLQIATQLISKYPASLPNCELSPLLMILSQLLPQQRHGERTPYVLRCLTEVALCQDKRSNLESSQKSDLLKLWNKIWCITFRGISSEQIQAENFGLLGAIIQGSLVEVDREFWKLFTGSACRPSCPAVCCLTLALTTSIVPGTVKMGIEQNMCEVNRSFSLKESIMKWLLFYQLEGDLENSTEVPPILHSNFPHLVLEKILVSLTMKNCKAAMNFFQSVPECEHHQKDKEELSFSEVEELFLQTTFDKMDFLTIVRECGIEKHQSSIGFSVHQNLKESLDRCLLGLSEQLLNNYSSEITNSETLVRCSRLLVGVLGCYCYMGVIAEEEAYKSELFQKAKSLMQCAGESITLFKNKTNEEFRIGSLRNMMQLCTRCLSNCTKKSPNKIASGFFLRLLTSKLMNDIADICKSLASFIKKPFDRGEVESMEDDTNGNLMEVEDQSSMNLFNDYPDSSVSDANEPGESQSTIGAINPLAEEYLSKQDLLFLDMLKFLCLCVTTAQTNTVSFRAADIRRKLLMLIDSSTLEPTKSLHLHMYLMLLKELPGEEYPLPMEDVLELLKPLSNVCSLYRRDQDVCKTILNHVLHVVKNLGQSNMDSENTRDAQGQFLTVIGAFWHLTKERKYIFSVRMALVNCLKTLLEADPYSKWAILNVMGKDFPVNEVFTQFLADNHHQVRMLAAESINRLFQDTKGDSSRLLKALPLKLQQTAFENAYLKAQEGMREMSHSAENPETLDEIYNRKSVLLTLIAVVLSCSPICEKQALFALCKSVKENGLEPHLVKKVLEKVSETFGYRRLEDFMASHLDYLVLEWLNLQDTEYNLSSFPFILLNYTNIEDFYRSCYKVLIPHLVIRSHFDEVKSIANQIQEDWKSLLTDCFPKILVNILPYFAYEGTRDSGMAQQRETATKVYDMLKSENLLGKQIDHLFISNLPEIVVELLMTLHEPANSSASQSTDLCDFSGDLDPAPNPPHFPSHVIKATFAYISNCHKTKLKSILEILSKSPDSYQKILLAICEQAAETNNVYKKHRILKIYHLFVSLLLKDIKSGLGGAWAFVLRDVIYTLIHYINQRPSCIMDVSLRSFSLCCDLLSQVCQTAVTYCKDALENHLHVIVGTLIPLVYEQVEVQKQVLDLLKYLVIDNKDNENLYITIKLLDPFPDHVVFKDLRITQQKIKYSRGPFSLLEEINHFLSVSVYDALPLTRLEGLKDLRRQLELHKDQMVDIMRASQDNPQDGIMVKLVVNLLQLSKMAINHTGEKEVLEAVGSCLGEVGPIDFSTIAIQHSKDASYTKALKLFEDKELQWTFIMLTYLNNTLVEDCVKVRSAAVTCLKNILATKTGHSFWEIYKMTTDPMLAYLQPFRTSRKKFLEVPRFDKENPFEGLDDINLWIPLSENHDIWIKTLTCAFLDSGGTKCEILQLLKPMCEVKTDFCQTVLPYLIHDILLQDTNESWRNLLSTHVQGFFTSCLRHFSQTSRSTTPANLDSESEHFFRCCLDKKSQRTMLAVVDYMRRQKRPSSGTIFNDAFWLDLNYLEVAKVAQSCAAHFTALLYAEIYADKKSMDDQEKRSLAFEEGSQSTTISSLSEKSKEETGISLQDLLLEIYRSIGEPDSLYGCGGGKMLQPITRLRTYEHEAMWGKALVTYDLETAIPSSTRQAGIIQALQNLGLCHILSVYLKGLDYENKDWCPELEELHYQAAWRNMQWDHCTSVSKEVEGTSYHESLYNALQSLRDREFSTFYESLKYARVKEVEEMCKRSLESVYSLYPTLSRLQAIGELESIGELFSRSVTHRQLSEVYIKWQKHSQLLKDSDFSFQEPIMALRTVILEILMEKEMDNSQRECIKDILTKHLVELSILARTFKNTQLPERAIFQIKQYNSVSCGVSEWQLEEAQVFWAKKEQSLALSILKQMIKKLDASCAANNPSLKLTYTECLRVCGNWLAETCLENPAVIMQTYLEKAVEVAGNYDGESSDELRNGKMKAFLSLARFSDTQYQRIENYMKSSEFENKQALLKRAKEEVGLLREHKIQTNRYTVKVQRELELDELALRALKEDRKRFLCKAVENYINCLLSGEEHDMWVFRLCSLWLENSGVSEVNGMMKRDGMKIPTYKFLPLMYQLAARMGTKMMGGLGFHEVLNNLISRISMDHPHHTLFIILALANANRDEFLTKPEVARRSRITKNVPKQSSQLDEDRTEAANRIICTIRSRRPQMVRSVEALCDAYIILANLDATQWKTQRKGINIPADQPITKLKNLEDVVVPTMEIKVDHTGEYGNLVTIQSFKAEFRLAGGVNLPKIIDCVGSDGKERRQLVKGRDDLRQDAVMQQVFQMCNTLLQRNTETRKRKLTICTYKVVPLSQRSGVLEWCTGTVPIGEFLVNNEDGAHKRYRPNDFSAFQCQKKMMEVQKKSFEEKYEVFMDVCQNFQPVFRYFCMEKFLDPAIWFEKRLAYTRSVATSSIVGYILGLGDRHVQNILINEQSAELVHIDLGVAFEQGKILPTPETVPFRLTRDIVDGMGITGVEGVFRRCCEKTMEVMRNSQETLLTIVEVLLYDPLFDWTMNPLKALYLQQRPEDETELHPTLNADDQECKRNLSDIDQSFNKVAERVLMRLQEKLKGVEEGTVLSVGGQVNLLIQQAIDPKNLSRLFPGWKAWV
Experimental: (§1) The kinase profiling analysis was performed at Eurofins (Poitiers, France). A total of 110 kinase assays were carried out according to Eurofins’ standard protocols. For protein kinase assays, the kinase activity was measured using Eurofins’ KinaseProfiler radiometric assay. In this assay, a panel of kinases was incubated with the test compound SJP1602 at a concentration of 1 µM, and the kinase activity was determined using radiolabeled phosphate as a substrate. Lipid and atypical kinase assays were conducted using Eurofins’ homogeneous time-resolved fluorescence assay. The same panel of kinases was incubated with SJP1602 at a concentration of 1 µM, and the activity of lipid and atypical kinases was measured using this assay.

DAPK1(h) = molecular target: T2, DAPK1(h) (Homo sapiens, UniProt P53355); assay: Eurofins kinase profiling; type: biochemical; details: read-out: residual kinase activity DAPK1(h)
T2 construct: purchased Eurofins KinaseProfiler
Experimental: as §1

EphA7(h) = molecular target: T3, EphA7(h) (Homo sapiens, UniProt Q15375); assay: Eurofins kinase profiling; type: biochemical; details: read-out: residual kinase activity EphA7(h)
T3 construct: purchased Eurofins KinaseProfiler
Experimental: as §1

Fes(h) = molecular target: T4, Fes(h) (Homo sapiens, UniProt P07332); assay: Eurofins kinase profiling; type: biochemical; details: read-out: residual kinase activity Fes(h)
T4 construct: purchased Eurofins KinaseProfiler
Experimental: as §1

IGF-1R(h), activated = molecular target: T5, IGF-1R(h), activated (Homo sapiens, UniProt P08069); assay: Eurofins kinase profiling; type: biochemical; details: 1 µM
T5 construct: purchased Eurofins KinaseProfiler
Experimental: as §1

NIM1(h) = molecular target: T6, NIM1(h) (Homo sapiens, UniProt Q8IY84); assay: Eurofins kinase profiling; type: biochemical; details: read-out: residual kinase activity NIM1(h)
T6 construct: purchased Eurofins KinaseProfiler
T6 sequence (Q8IY84 whole entry): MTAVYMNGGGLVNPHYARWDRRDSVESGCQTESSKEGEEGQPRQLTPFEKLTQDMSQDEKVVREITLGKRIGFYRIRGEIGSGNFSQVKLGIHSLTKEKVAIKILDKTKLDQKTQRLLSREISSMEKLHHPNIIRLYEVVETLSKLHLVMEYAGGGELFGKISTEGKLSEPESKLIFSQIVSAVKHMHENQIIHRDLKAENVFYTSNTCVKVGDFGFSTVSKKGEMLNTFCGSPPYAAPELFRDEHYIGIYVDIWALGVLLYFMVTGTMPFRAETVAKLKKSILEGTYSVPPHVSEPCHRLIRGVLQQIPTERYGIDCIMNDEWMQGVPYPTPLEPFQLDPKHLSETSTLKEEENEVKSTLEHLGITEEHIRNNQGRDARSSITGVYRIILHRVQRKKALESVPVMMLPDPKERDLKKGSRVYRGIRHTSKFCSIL
Experimental: as §1

PKC μ(h) = molecular target: T7, PKC μ(h) (Homo sapiens, UniProt Q15139); assay: Eurofins kinase profiling; type: biochemical; details: read-out: residual kinase activity PKC μ(h)
T7 construct: purchased Eurofins KinaseProfiler
T7 sequence (Q15139 1-912): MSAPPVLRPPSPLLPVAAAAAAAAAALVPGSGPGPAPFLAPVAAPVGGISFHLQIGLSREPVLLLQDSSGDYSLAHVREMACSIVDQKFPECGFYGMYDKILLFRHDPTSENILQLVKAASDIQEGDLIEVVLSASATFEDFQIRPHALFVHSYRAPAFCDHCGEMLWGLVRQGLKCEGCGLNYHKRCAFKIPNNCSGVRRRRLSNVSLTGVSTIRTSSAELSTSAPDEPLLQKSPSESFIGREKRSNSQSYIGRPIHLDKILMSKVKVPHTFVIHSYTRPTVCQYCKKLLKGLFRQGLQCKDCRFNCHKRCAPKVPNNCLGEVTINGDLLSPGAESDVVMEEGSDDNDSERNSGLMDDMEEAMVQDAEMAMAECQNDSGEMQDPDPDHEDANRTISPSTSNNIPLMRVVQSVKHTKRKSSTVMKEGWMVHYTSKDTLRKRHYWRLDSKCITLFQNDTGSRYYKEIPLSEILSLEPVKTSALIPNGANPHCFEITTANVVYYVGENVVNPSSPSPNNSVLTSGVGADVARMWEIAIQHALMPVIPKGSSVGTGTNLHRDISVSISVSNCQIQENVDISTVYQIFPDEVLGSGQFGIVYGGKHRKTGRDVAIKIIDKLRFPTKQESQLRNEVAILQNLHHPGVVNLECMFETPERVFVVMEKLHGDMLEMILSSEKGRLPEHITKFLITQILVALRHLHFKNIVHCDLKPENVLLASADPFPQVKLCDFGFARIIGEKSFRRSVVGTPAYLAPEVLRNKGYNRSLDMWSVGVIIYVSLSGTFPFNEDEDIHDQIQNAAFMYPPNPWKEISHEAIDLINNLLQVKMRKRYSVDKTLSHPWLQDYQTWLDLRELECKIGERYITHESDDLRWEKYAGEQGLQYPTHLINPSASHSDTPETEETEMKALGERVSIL
Experimental: as §1

TrkC(h) = molecular target: T8, TrkC(h) (Homo sapiens, UniProt Q16288); assay: Eurofins kinase profiling; type: biochemical; details: read-out: residual kinase activity TrkC(h)
T8 construct: purchased Eurofins KinaseProfiler
T8 sequence (Q16288 32-839): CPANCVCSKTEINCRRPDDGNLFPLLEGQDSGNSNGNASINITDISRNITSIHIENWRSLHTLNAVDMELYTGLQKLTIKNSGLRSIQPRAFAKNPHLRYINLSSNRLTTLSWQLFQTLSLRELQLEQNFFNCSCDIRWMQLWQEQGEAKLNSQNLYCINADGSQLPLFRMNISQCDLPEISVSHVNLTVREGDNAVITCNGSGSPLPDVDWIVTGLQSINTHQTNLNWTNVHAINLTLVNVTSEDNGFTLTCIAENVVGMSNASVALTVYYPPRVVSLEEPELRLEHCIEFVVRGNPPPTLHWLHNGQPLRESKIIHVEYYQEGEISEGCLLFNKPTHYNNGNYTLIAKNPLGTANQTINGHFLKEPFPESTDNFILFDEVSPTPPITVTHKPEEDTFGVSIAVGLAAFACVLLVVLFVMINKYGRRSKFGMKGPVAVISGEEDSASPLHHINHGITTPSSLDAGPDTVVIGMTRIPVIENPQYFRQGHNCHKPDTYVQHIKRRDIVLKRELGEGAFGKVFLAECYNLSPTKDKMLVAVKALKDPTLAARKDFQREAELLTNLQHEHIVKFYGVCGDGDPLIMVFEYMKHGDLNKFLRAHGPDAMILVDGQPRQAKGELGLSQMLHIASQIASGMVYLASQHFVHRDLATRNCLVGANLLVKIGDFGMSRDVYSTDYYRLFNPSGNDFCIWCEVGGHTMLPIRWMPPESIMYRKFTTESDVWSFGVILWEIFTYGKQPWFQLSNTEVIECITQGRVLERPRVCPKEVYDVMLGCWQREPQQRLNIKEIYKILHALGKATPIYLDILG
Experimental: as §1

ZAP-70(h) = molecular target: T9, ZAP-70(h) (Homo sapiens, UniProt P43403); assay: Eurofins kinase profiling; type: biochemical; details: read-out: residual kinase activity ZAP-70(h)
T9 construct: purchased Eurofins KinaseProfiler
T9 sequence (P43403 1-619): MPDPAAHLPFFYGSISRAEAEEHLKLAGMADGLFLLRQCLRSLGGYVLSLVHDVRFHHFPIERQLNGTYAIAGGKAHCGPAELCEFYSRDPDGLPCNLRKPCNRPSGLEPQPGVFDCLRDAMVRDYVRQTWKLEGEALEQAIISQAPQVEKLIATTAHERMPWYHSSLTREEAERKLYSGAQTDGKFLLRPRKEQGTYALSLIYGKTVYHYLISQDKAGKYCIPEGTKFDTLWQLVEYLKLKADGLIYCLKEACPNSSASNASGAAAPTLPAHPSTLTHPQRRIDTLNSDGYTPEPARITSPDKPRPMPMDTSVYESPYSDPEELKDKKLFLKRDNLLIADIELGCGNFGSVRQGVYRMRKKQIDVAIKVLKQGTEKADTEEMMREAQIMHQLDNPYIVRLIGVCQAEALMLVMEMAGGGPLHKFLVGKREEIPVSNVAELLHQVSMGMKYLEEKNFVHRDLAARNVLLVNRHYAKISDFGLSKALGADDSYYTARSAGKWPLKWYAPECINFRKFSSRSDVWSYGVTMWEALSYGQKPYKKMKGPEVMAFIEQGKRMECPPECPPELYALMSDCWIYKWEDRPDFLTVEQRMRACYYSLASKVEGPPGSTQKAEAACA
Experimental: as §1

c-RAF(h) = molecular target: T10, c-RAF(h) (Homo sapiens, UniProt P04049); assay: Eurofins kinase profiling; type: biochemical; details: read-out: residual kinase activity c-RAF(h)
T10 construct: purchased Eurofins KinaseProfiler
T10 sequence (P04049 whole entry): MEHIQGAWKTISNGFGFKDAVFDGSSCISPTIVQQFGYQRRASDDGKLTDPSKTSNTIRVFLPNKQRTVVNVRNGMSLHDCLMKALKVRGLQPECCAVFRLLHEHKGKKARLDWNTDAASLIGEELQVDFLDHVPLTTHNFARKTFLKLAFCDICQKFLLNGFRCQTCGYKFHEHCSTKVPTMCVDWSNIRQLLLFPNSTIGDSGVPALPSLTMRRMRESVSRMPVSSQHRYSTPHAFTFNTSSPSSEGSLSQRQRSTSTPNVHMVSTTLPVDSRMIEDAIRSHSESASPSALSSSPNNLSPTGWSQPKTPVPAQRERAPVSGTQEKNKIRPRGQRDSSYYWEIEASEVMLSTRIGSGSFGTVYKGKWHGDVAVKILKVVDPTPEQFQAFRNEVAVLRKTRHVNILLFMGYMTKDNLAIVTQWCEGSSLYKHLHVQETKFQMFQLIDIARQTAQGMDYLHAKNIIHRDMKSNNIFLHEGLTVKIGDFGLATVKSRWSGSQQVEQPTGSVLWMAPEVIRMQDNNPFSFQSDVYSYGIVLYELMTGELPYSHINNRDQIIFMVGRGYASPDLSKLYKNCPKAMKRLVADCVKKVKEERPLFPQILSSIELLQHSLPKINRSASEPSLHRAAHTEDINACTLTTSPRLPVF
Experimental: as §1

p70S6K(h) = molecular target: T11, p70S6K(h) (Homo sapiens, UniProt P23443); assay: Eurofins kinase profiling; type: biochemical; details: read-out: residual kinase activity p70S6K(h)
T11 construct: purchased Eurofins KinaseProfiler
Experimental: as §1

SMILES | IC50 (HCC70) [µM] | remaining activity at 1 µM (ATM(h)) [%] | remaining activity at 1 µM (DAPK1(h)) [%] | remaining activity at 1 µM (EphA7(h)) [%] | remaining activity at 1 µM (Fes(h)) [%] | residual kinase activity IGF-1R(h), activated (IGF-1R(h), activated) | remaining activity at 1 µM (NIM1(h)) [%] | remaining activity at 1 µM (PKC μ(h)) [%] | remaining activity at 1 µM (TrkC(h)) [%] | remaining activity at 1 µM (ZAP-70(h)) [%] | remaining activity at 1 µM (c-RAF(h)) [%] | remaining activity at 1 µM (p70S6K(h)) [%]
CNC(=O)c1ccc(Nc2ncc(C(F)(F)F)c(NCc3nccnc3N(C)S(C)(=O)=O)n2)cc1 [VS-6063, Defactinib] | 8.18 | 63 | 94 | 41 | 7 | 74 | 78 | 100 | 13 | 139 | 80 | 98
CONC(=O)c1ccccc1Nc1cc(Nc2cc(C)nn2C(C)C)ncc1Cl [GSK2256098] | > 10 | 94 | 83 | 99 | 49 | 108 | 85 | 109 | 104 | 105 | 72 | 69
CNC(=O)c1cccc(C)c1Nc1nc(Nc2ccc(N3CCN(C4C5CC6CC4CC(O)(C6)C5)CC3)cc2OC)ncc1C(F)(F)F (stereo not drawn) [SJP1602, 2-((2-((4-(4-((2s,5r)-5-hydroxyadamantan-2-yl)piperazin-1-yl)-2-methoxyphenyl)amino)-5-(trifluoromethyl)pyrimidin-4-yl)amino)-N,3-dimethylbenzamide] | 1.45 | 98 | 108 | 103 | 54 | 105 | 95 | 113 | 120 | 124 | 90 | 124
